The values that follow are results of earlier work, collected in patent US20200077661A1, “METHOD AND "IDEPS" COMPOSITION FOR DESTROYING MICROORGANISMS IN A SESSILE STATE” (IDEPS GMBH, priority 2016, published 2020).

This data set concerns coagulase-negative staphylococci.

Regarding varnerin, for the setting “16-128 μg/ml varnerin for 10 μg of biofilm, incubation at 37° C. for 24 hours”, the “destruction of the exopolymeric matrix” value was “partial destruction”. For the setting “16-128 μg/ml varnerin for 10 μg of biofilm, incubation at 37° C. for 24 hours, biofilm formed within 24 hours”, the bacterial cells die result was “up to 30%”. Also, the “bacteria in the young biofilm not eliminated” value (young biofilm (24 hours old)) was “up to 70%”.
